Converted amounts (≈) assume the structure as drawn. One block for each compound: values may come before it. Numbered stars: 1 amine (or outer) side, 2 acyl side, 3 side chain; on linkers, the order of the positions; unused ones are H or OH. Square brackets hold non-standard residues; d marks the D form. Peptide text beside a SMILES is read from it. ξ: configuration not given here. X1 = N=C1NCC(C(O)C(N[*:1])C(=O)[*:2])N1C1OC(CO)C(O)C(O)C1O; ξEnduracididine(βξ-OH,4'ξ) = N=C1NCC(C(O)C(N)C(=O)O)N1
Assays:
Assay in all cases: In vitro antibacterial evaluation: minimum inhibitory concentration (MIC), broth dilution method
Format in all cases: cell-based
Escherichia coli [1] = test system: Escherichia coli
Method in brief: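 MIC read as lowest drug level preventing visible growth. Organisms at 5×10^5 CFU/mL were exposed to a 64-0.06 μg/mL dilution series in Muller-Hinton II […] following NCCLS broth dilution standard M7-A2.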

Staphylococcus sp. = conditions: 18 hours at 35° C.
Method in brief: (§1)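 Broth dilution per NCCLS M7-A2 in Muller-Hinton II […], inoculum 5×10^5 CFU/mL, antibiotic tested over 64-0.06 μg/mL. MIC is taken as the lowest concentration that inhibits growth. Panel includes recent clinical isolates resistant to methicillin, penicillin and/or vancomycin.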

Enterococcus sp. = test system: Enterococcus sp.
Method in brief: as §1

Escherichia coli [2] = test system: Escherichia coli; remark: listed apart in the source

MIC Escherichia coli (GC 4559) (Escherichia coli [1]): >64 µg/mL | MIC Escherichia coli (GC 4560) (Escherichia coli [1]): 2 µg/mL (≈ 1.45 µM) | MIC Coagulase Negative Staphylococcus (GC 4547) (Staphylococcus sp.): 4 µg/mL (≈ 2.9 µM) | MIC Coagulase Negative Staphylococcus (GC 4547) (Staphylococcus sp.; broth dilution): 4 µg/mL (≈ 2.9 µM) | MIC Coagulase Negative Staphylococcus (GC 4548) (Staphylococcus sp.): 2 µg/mL (≈ 1.45 µM) | MIC Coagulase Negative Staphylococcus (GC 4548) (Staphylococcus sp.; broth dilution): 2 µg/mL (≈ 1.45 µM) | MIC Coagulase Negative Staphylococcus (GC 4549) (Staphylococcus sp.): 2 µg/mL (≈ 1.45 µM) | MIC Coagulase Negative Staphylococcus (GC 4549) (Staphylococcus sp.; broth dilution): 2 µg/mL (≈ 1.45 µM) | MIC Coagulase Negative Staphylococcus (GC 4551) (Staphylococcus sp.): 8 µg/mL (≈ 5.8 µM) | MIC Coagulase Negative Staphylococcus (GC 4551) (Staphylococcus sp.; broth dilution): 8 µg/mL (≈ 5.8 µM) | MIC Coagulase Negative Staphylococcus (GC 6257) (Staphylococcus sp.): 2 µg/mL (≈ 1.45 µM) | MIC Coagulase Negative Staphylococcus (GC 6257) (Staphylococcus sp.; broth dilution): 2 µg/mL (≈ 1.45 µM) | MIC Staphylococcus aureus (ATCC 29213) (Staphylococcus sp.): 4 µg/mL (≈ 2.9 µM) | MIC Staphylococcus aureus (ATCC 29213) (Staphylococcus sp.; broth dilution): 4 µg/mL (≈ 2.9 µM) | MIC Staphylococcus aureus (GC 1131) (Staphylococcus sp.): 8 µg/mL (≈ 5.8 µM) | MIC Staphylococcus aureus (GC 1131) (Staphylococcus sp.; broth dilution): 8 µg/mL (≈ 5.8 µM) | MIC Staphylococcus aureus (GC 3051) (Staphylococcus sp.): 2 µg/mL (≈ 1.45 µM) | MIC Staphylococcus aureus (GC 3051) (Staphylococcus sp.; broth dilution): 2 µg/mL (≈ 1.45 µM) | MIC Staphylococcus aureus (GC 3053) (Staphylococcus sp.): 8 µg/mL (≈ 5.8 µM) | MIC Staphylococcus aureus (GC 3053) (Staphylococcus sp.; broth dilution): 8 µg/mL (≈ 5.8 µM) | MIC Staphylococcus aureus (GC 4541) (Staphylococcus sp.): 4 µg/mL (≈ 2.9 µM) | MIC Staphylococcus aureus (GC 4541) (Staphylococcus sp.; broth dilution): 4 µg/mL (≈ 2.9 µM) | MIC Staphylococcus aureus (GC 4542) (Staphylococcus sp.): 4 µg/mL (≈ 2.9 µM) | MIC Staphylococcus aureus (GC 4542) (Staphylococcus sp.; broth dilution): 4 µg/mL (≈ 2.9 µM) | MIC Staphylococcus aureus (GC 4544) (Staphylococcus sp.): 4 µg/mL (≈ 2.9 µM) | MIC Staphylococcus aureus (GC 4544) (Staphylococcus sp.; broth dilution): 4 µg/mL (≈ 2.9 µM) | MIC Staphylococcus aureus (GC 4545) (Staphylococcus sp.): 4 µg/mL (≈ 2.9 µM) | MIC Staphylococcus aureus (GC 4545) (Staphylococcus sp.; broth dilution): 4 µg/mL (≈ 2.9 µM) | MIC Staphylococcus aureus-SMITH (GC 4543) (Staphylococcus sp.): 4 µg/mL (≈ 2.9 µM) | MIC Staphylococcus aureus-SMITH (GC 4543) (Staphylococcus sp.; broth dilution): 4 µg/mL (≈ 2.9 µM) | MIC Enterococcus avium (GC 4558) (Enterococcus sp.): 32 µg/mL (≈ 23.2 µM) | MIC Enterococcus faecalis (ATCC 29212) (Enterococcus sp.): 32 µg/mL (≈ 23.2 µM) | MIC Enterococcus faecalis (GC 4553) (Enterococcus sp.): 32 µg/mL (≈ 23.2 µM) | MIC Enterococcus faecalis (GC 4554) (Enterococcus sp.): 32 µg/mL (≈ 23.2 µM) | MIC Enterococcus faecalis (GC 6189) (Enterococcus sp.): 32 µg/mL (≈ 23.2 µM) | MIC Enterococcus faecium (GC 2243) (Enterococcus sp.): 32 µg/mL (≈ 23.2 µM) | MIC Enterococcus faecium (GC 4556) (Enterococcus sp.): 32 µg/mL (≈ 23.2 µM) | MIC Enterococcus faecium (GC 4557) (Enterococcus sp.): 8 µg/mL (≈ 5.8 µM) | MIC Escherichia coli (ATCC 25922) (Escherichia coli [2]): >64 µg/mL
Structure (SMILES): CCC(C)C(=O)OC1C(CO)OC(OC2C(CO)OC(Oc3ccc(CC4NC(=O)C(C(C)c5ccccc5)NC(=O)CNC(=O)C(CO)NC(=O)C(C(O)C5CNC(=N)N5C5OC(CO)C(O)C(O)C5O)NC(=O)C(C(O)C5CNC(=N)N5)NC4=O)cc3)C(O)C2O)C(O)C1O (stereo not drawn) [Example 278c, Cyclo[glycyl-β-methylphenylalanyl-O-[4-O-[4-O-(2-methylbutanoyl)hexopyranosyl]hexopyranosyl]tyrosyl-3-(2-iminoimidazolidin-4-yl)seryl-3-(3-hexopyranosyl-2-iminoimidazolidin-4-yl)serylseryl]]
MIC Staphylococcus haemolyticus (GC 4546) (Staphylococcus sp.): 2 µg/mL (≈ 1.45 µM) | MIC Staphylococcus haemolyticus (GC 4546) (Staphylococcus sp.; broth dilution): 2 µg/mL (≈ 1.45 µM)

MIC Escherichia coli (GC 4559) (Escherichia coli [1]): 64 µg/mL (≈ 66.9 µM) | MIC Escherichia coli (GC 4560) (Escherichia coli [1]): 32 µg/mL (≈ 33.4 µM) | MIC Coagulase Negative Staphylococcus (GC 4547) (Staphylococcus sp.): 64 µg/mL (≈ 66.9 µM) | MIC Coagulase Negative Staphylococcus (GC 4547) (Staphylococcus sp.; broth dilution): 64 µg/mL (≈ 66.9 µM) | MIC Coagulase Negative Staphylococcus (GC 4548) (Staphylococcus sp.): >64 µg/mL | MIC Coagulase Negative Staphylococcus (GC 4548) (Staphylococcus sp.; broth dilution): >64 µg/mL | MIC Coagulase Negative Staphylococcus (GC 4549) (Staphylococcus sp.): 64 µg/mL (≈ 66.9 µM) | MIC Coagulase Negative Staphylococcus (GC 4549) (Staphylococcus sp.; broth dilution): 64 µg/mL (≈ 66.9 µM) | MIC Coagulase Negative Staphylococcus (GC 4551) (Staphylococcus sp.): >64 µg/mL | MIC Coagulase Negative Staphylococcus (GC 4551) (Staphylococcus sp.; broth dilution): >64 µg/mL | MIC Coagulase Negative Staphylococcus (GC 6257) (Staphylococcus sp.): 64 µg/mL (≈ 66.9 µM) | MIC Coagulase Negative Staphylococcus (GC 6257) (Staphylococcus sp.; broth dilution): 64 µg/mL (≈ 66.9 µM) | MIC Staphylococcus aureus (ATCC 29213) (Staphylococcus sp.): >64 µg/mL | MIC Staphylococcus aureus (ATCC 29213) (Staphylococcus sp.; broth dilution): >64 µg/mL | MIC Staphylococcus aureus (GC 1131) (Staphylococcus sp.): >64 µg/mL | MIC Staphylococcus aureus (GC 1131) (Staphylococcus sp.; broth dilution): >64 µg/mL | MIC Staphylococcus aureus (GC 3051) (Staphylococcus sp.): >64 µg/mL | MIC Staphylococcus aureus (GC 3051) (Staphylococcus sp.; broth dilution): >64 µg/mL | MIC Staphylococcus aureus (GC 3053) (Staphylococcus sp.): >64 µg/mL | MIC Staphylococcus aureus (GC 3053) (Staphylococcus sp.; broth dilution): >64 µg/mL | MIC Staphylococcus aureus (GC 4541) (Staphylococcus sp.): >64 µg/mL | MIC Staphylococcus aureus (GC 4541) (Staphylococcus sp.; broth dilution): >64 µg/mL | MIC Staphylococcus aureus (GC 4542) (Staphylococcus sp.): >64 µg/mL | MIC Staphylococcus aureus (GC 4542) (Staphylococcus sp.; broth dilution): >64 µg/mL | MIC Staphylococcus aureus (GC 4544) (Staphylococcus sp.): >64 µg/mL | MIC Staphylococcus aureus (GC 4544) (Staphylococcus sp.; broth dilution): >64 µg/mL | MIC Staphylococcus aureus (GC 4545) (Staphylococcus sp.): >64 µg/mL | MIC Staphylococcus aureus (GC 4545) (Staphylococcus sp.; broth dilution): >64 µg/mL | MIC Staphylococcus aureus-SMITH (GC 4543) (Staphylococcus sp.): >64 µg/mL | MIC Staphylococcus aureus-SMITH (GC 4543) (Staphylococcus sp.; broth dilution): >64 µg/mL | MIC Enterococcus avium (GC 4558) (Enterococcus sp.): >64 µg/mL | MIC Enterococcus faecalis (ATCC 29212) (Enterococcus sp.): >64 µg/mL | MIC Enterococcus faecalis (GC 4553) (Enterococcus sp.): >64 µg/mL | MIC Enterococcus faecalis (GC 4554) (Enterococcus sp.): >64 µg/mL | MIC Enterococcus faecalis (GC 6189) (Enterococcus sp.): >64 µg/mL | MIC Enterococcus faecium (GC 2243) (Enterococcus sp.): >64 µg/mL | MIC Enterococcus faecium (GC 4556) (Enterococcus sp.): >64 µg/mL | MIC Enterococcus faecium (GC 4557) (Enterococcus sp.): 64 µg/mL (≈ 66.9 µM) | MIC Escherichia coli (ATCC 25922) (Escherichia coli [2]): 64 µg/mL (≈ 66.9 µM)
Structure (SMILES): N=C1NCC(C(O)C2NC(=O)C(Cc3ccc(O)cc3)NC(=O)C(Cc3ccccc3)NC(=O)CNC(=O)C(CO)NC(=O)C(C(O)C3CNC(=N)N3C3OC(CO)C(O)C(O)C3O)NC2=O)N1 (stereo not drawn) [Example 279a, Cyclo[glycylphenylalanyltyrosyl-3-(2-iminoimidazolidin-4-yl)seryl-3-(3-hexopyranosyl-2-iminoimidazolidin-4-yl)serylseryl]] (cyclo(GFY[ξEnduracididine(βξ-OH,4'ξ)][X1]S); configuration not given here)
MIC Staphylococcus haemolyticus (GC 4546) (Staphylococcus sp.): 64 µg/mL (≈ 66.9 µM) | MIC Staphylococcus haemolyticus (GC 4546) (Staphylococcus sp.; broth dilution): 64 µg/mL (≈ 66.9 µM)
